PMC9315884, “New Membrane Active Antibacterial and Antiviral Amphiphiles Derived from Heterocyclic Backbone of Pyridinium-4-Aldoxime” (Pharmaceuticals, 2022)
Values joined by “and” are separate entries in the source; they are usually repeats but may differ in a detail not shown here. Equal values may be shown once. Where a name gives a salt, the structure may show the parent alone. Read-outs that look alike come from different tables or passages of the source.

Experiments:
[1] = system: Tobacco mosaic virus (TMV); test: Antiphytoviral activity assay (local lesions on host plant leaves); type: in vivo, Tobacco mosaic virus on Datura stramonium; conditions: Datura stramonium leaves, compound 100 µg/mL inoculated simultaneously with TMV
Method: Leaves of Nicotiana tabacum L. cv. Samsun plants systemically infected with Tobacco mosaic virus (TMV) were ground in 0.06 mol/L phosphate buffer, pH 7.0 (1:1, w/v) to prepare virus inocula. […] Leaves of the local host Datura stramonium L. were dusted with silicon carbide (Sigma-Aldrich, St. Louis, MO, USA) before virus inoculation, and the inoculum was diluted with inoculation buffer to obtain 5–20 lesions per inoculated leaf. Experiments were performed when the experimental plants reached the 4–6 leaf stage.
The tested QAS (10 mg/mL) were dissolved in 4% DMSO and added to the virus inocula at a final concentration of 100 µg/mL. DMSO was added to the control virus inocula at the same concentration. The control and treated plants were then rubbed with the prepared inocula and the antiviral activity of the tested compounds was evaluated by the percentage inhibition of the number of local lesions on the leaves of the treated and control plants as described in [40]. The obtained data were analyzed in Excel (Microsoft Office) and significant differences were determined by t-test.

[2] = system: Salmonella enterica food isolate; test: Broth microdilution assay (MIC); type: cell-based; conditions: S. enterica food isolate
Method: (§1) The antibacterial activity of all compounds was evaluated by determining the minimum inhibitory concentration (MIC), which is defined as the lowest concentration of the compound at which no visible bacterial growth is detected. The compounds were tested against representatives of Gram-positive and Gram-negative strains, including the ESKAPE bacterium Staphylococcus aureus ATCC25923 and the clinical isolate of methicillin-resistant S. aureus (MRSA), which are known for their pathogenicity.
(§2) The collection included five Gram-positive strains, including Staphylococcus aureus (ATCC 25923 and a methicillin-resistant Staphylococcus aureus clinical strain MRSA), Bacillus cereus ATCC 14579, Enterococcus faecalis ATCC 29212, and Listeria monocytogenes ATCC 7644; and three Gram-negative strains: Escherichia coli ATCC 25922, Pseudomonas aeruginosa ATCC 27853 and the food isolate Salmonella enterica. All microbial strains were maintained at ™80 °C for long-term storage and subcultured on Mueller-Hinton (MH) agar (Biolife, Italy) prior to broth microdilution experiments. The MH plates were stored at +4 °C for no longer than one month.
(§3) Antibacterial activity was evaluated using the Broth Microdilution Assay according to the Clinical and Laboratory Standard Institute’s Methods for Dilution Antimicrobial Susceptibility Test for Bacteria That Grow Aerobically; Approved Standard-Tenth Edition.
(§4) The stock solution of QAS (10 mg/mL) was prepared in 4% DMSO. Then, 100 µL of the tested QAS was added to the first well of the microtiter plate. Twofold serial dilutions in Muller-Hinton broth were performed over the entire plate at a concentration range of 5 mg/mL to 5 µg/mL. To each well, 50 µL of mid-exponentially grown inoculum containing 10^5 CFU/mL in Mueller-Hinton broth was added and incubated at 37 °C for 18 hours. The minimum inhibitory concentration (MIC) was determined as the lowest concentration at which no visually detectable bacterial growth occurred in the wells.

[3] = system: methicillin-resistant Staphylococcus aureus clinical strain MRSA; test: Broth microdilution assay (MIC); type: cell-based
Method: as §1, §2, §3, §4

[4] = system: Bacillus cereus ATCC14579; test: Broth microdilution assay (MIC); type: cell-based
Method: as §1
(§5) All microbial strains were maintained at ™80 °C for long-term storage and subcultured on Mueller-Hinton (MH) agar (Biolife, Italy) prior to broth microdilution experiments. The MH plates were stored at +4 °C for no longer than one month.
as §3
as §4, with “To each well, 50 µL of mid-exponentially grown inoculum containing 10^5 CFU/mL in Mueller-Hinton broth was added and incubated at 37 °C for 18 hours.” left out

[5] = system: Enterococcus faecalis ATCC29212; test: Broth microdilution assay (MIC); type: cell-based
Method: as §1, §5, §3
as §4, with “To each well, 50 µL of mid-exponentially grown inoculum containing 10^5 CFU/mL in Mueller-Hinton broth was added and incubated at 37 °C for 18 hours.” left out

[6] = system: Escherichia coli ATCC25922; test: Broth microdilution assay (MIC); type: cell-based
Method: as §1, §5, §3
as §4, with “To each well, 50 µL of mid-exponentially grown inoculum containing 10^5 CFU/mL in Mueller-Hinton broth was added and incubated at 37 °C for 18 hours.” left out

[7] = system: Listeria monocytogenes ATCC7644; test: Broth microdilution assay (MIC); type: cell-based
Method: as §1, §5, §3
as §4, with “To each well, 50 µL of mid-exponentially grown inoculum containing 10^5 CFU/mL in Mueller-Hinton broth was added and incubated at 37 °C for 18 hours.” left out

[8] = system: Pseudomonas aeruginosa ATCC27853; test: Broth microdilution assay (MIC); type: cell-based
Method: as §1, §5, §3
as §4, with “To each well, 50 µL of mid-exponentially grown inoculum containing 10^5 CFU/mL in Mueller-Hinton broth was added and incubated at 37 °C for 18 hours.” left out

[9] = system: Staphylococcus aureus ATCC25923; test: Broth microdilution assay (MIC); type: cell-based; conditions: Staphylococcus aureus, S. aureus ATCC25923, read-out: MIC
Method: as §1, §5, §3
as §4, with “To each well, 50 µL of mid-exponentially grown inoculum containing 10^5 CFU/mL in Mueller-Hinton broth was added and incubated at 37 °C for 18 hours.” left out

[10] = 18 h, B. cereus ATCC14579, read-out: MIC
[11] = 18 h, E. faecalis ATCC29212, read-out: MIC
[12] = ATCC25922, 18 h, E. coli ATCC25922, read-out: MIC
[13] = 18 h, L. monocytogenes ATCC7644, read-out: MIC
[14] = 18 h, P. aeruginosa ATCC27853, read-out: MIC

SMILES	MIC ([2]; 18 h)	MIC ([3]; MRSA, 18 h)	MIC [4, 10]	MIC [5, 11]	MIC [6, 12]	MIC [7, 13]	MIC [8, 14]	MIC ([9]; 18 h, 37 °C)	other results
ON=Cc1cc[n+](Cc2ccc(C(F)(F)F)cc2)cc1 (as salt: bromide) [Py-BnCF3, N-(p-(trifluoromethyl))benzyl-4-hydroxyiminomethylpyridinium bromide]	–	–	–	–	–	–	–	–	melting point: 186 to 187 °C
ON=Cc1cc[n+](Cc2ccc(OC(F)(F)F)cc2)cc1 (as salt: bromide) [Py-BnOCF3, N-(p-trifluoromethoxy)benzyl-4-hydroxyiminomethylpyridinium bromide]	–	–	–	–	–	–	–	–	melting point: 175 to 176 °C
CCCCCCCCCCCC[N+](C)(C)Cc1ccccc1.[Br-] [BAB, benzalkonium bromide, reference compound]	–	–	–	–	–	–	–	–	Number of local lesions (LLN ± SD) [1]: 0.2 and 0.2±0.2; Percentage of inhibition of local lesions ([1]; vs control plants): 98.7%
CO/N=C(\C(=O)N[C@@H]1C(=O)N2C(C(=O)O)=C(COC(C)=O)CS[C@H]12)c1csc(N)n1 [Cefotaxime, reference compound]	–	–	–	–	–	–	–	–	MIC ([2]; standards): 0.1 µg/mL and 0.2 µM; MIC ([3]; S. aureus clinical/MRSA, read-out: MIC): > 119 µg/mL; MIC ([3]; S. aureus clinical/MRSA, standards, read-out: MIC): > 250 µM; MIC ([4]; B. cereus ATCC14579, standards, read-out: MIC): 3.7 µg/mL and 10 µM; MIC ([5]; E. faecalis ATCC29212, standards, read-out: MIC): 29.8 µg/mL and 60 µM; MIC ([6]; ATCC25922, E. coli ATCC25922, standards, read-out: MIC): 0.2 µg/mL and 0.4 µM; MIC ([7]; L. monocytogenes ATCC7644, standards, read-out: MIC): 3.7 µg/mL and 10 µM; MIC ([8]; P. aeruginosa ATCC27853, standards, read-out: MIC): 59.7 µg/mL and 130 µM; MIC ([9]; standards): 3.7 µg/mL and 10 µM
ON=Cc1cc[n+](Cc2ccc(Br)cc2)cc1 [Py-BnBr]	630 µg/mL	1250 µg/mL	2500 µg/mL	2500 µg/mL and 6720 µM	160 µg/mL	2500 µg/mL and 6720 µM	5000 µg/mL and 13400 µM	1250 µg/mL	–
ON=Cc1cc[n+](Cc2ccc(C(F)(F)F)cc2)cc1 [Py-BnCF3, N-(p-(trifluoromethyl))benzyl-4-hydroxyiminomethylpyridinium bromide]	1250 µg/mL and 3460 µM	1250 µg/mL	1250 µg/mL	2500 µg/mL and 6920 µM	2500 µg/mL and 6920 µM	2500 µg/mL and 6920 µM	5000 µg/mL and 13800 µM	630 µg/mL	–
Cc1ccc(C[n+]2ccc(C=NO)cc2)cc1 [Py-BnCH3]	630 µg/mL	5000 µg/mL	5000 µg/mL	2500 µg/mL and 8140 µM	5000 µg/mL and 16300 µM	1250 µg/mL and 4070 µM	> 5000 µg/mL and > 16300 µM	2500 µg/mL	–
